Some test systems named below: LOX IMVI melanoma; M14 melanoma; OVCAR-8 ovarian; A498 renal; DU-145 prostate; SK-OV-3 ovarian; NCI/ADR-RES ovarian; UO-31 renal; SF-268 CNS; COLO 205 colon.
Holding throughout (experiment): growth of human tumour cells (NCI), 48 h

Where “and” joins values, the source holds several entries; their conditions need not be identical. Equal values may be shown once.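 Assay format: 96-well plates, 48-hour exposure. GI50 is the concentration that inhibits growth by half. Definition used: TGI = concentration required for complete inhibition of growth.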 *1 amine or outer side, *2 acyl side, *3 side chain or, on linkers, in order; H or OH if unused. Where a SMILES comes first, the peptide text is derived from it. CO = O=C([*:1])[*:2] A value given as a limit tells only on which side of the number the result lay.

Consider `CN1CCN(Cc2ccc(NC(=O)c3[nH]ncc3Nc3ccnc4ccsc34)cc2)CC1`, for which the GI50 is 1.33 µM in the assay on LOX IMVI melanoma; 3.69 µM in the assay with M14 melanoma; 3.63 µM in the assay on OVCAR-8 ovarian; 1.64 µM with A498 renal; 2.17 µM in the assay with DU-145 prostate; 1.05 µM in the assay on SK-OV-3 ovarian. Besides, the GI50 was 15.7 µM with NCI/ADR-RES ovarian, 1.78 µM in the assay on UO-31 renal, 3.22 µM with SF-268 CNS and 1.42 µM in the assay on COLO 205 colon. Moreover, the TGI was determined as 4.59 µM with LOX IMVI melanoma; 16.9 µM in the assay on M14 melanoma; 16.4 µM with OVCAR-8 ovarian; 4.87 µM in the assay with A498 renal; 11.6 µM in the assay with DU-145 prostate; 23.5 µM in the assay on SK-OV-3 ovarian. The TGI was over 100 µM with NCI/ADR-RES ovarian, 10.1 µM in the assay on UO-31 renal, 11 µM in the assay on SF-268 CNS and 8.32 µM in the assay on COLO 205 colon.

On to `Cc1cc(-c2cc(C)c(O)c(C(C)(C)C)c2)cc(C(C)(C)C)c1O`, for which the TGI was 29.4 µM and 23.6 µM with LOX IMVI melanoma; 22.4 µM and 25.4 µM in the assay with M14 melanoma; 31.5 µM and 26.1 µM in the assay on OVCAR-8 ovarian; 21.3 µM and 32.7 µM in the assay with A498 renal; 25.7 µM and 28.5 µM with DU-145 prostate; 29.2 µM and 30.4 µM with SK-OV-3 ovarian. Further, the TGI with NCI/ADR-RES ovarian was 23.5 µM and 28.2 µM; with UO-31 renal, 23 µM and 32 µM; in the assay with SF-268 CNS it was 23.9 µM and 29 µM; with COLO 205 colon, 23.1 µM and 28.9 µM.

`O=C(c1cccs1)c1c(C(F)(F)F)n([O-])c2cc(C(F)(F)F)ccc2[n+]1=O`: the GI50 was 0.0714 µM with LOX IMVI melanoma; 0.554 µM in the assay on M14 melanoma; 0.263 µM in the assay on OVCAR-8 ovarian; 0.96 µM with A498 renal; 0.179 µM in the assay on DU-145 prostate; 0.758 µM in the assay with SK-OV-3 ovarian. Further, the GI50 is 0.216 µM in the assay on NCI/ADR-RES ovarian, 0.315 µM in the assay on UO-31 renal, 0.163 µM with SF-268 CNS and 0.174 µM in the assay with COLO 205 colon. Besides, the TGI in the assay on LOX IMVI melanoma is 0.17 µM; with M14 melanoma, 1.19 µM; in the assay on OVCAR-8 ovarian it was 1.48 µM; in the assay on A498 renal, 2.6 µM; in the assay with DU-145 prostate, 0.326 µM; with SK-OV-3 ovarian, 1.87 µM. For the same molecule, the TGI with NCI/ADR-RES ovarian came to 0.585 µM; in the assay with UO-31 renal, 0.656 µM; in the assay with SF-268 CNS it was 0.334 µM; in the assay with COLO 205 colon it was 0.362 µM.

Consider `O=C(/C=C/c1ccc2c(c1)OCO2)c1ccccc1`, for which the GI50 in the assay with LOX IMVI melanoma was 12.6 µM; in the assay on M14 melanoma it was 13.2 µM; in the assay on OVCAR-8 ovarian, 17.4 µM; with A498 renal, 12.4 µM; in the assay on DU-145 prostate, 10.2 µM; in the assay on SK-OV-3 ovarian it was 27.5 µM. Also, the GI50 is 20.6 µM in the assay on NCI/ADR-RES ovarian, 4.19 µM with UO-31 renal, 15 µM in the assay with SF-268 CNS and 19.1 µM with COLO 205 colon. The TGI in the assay on LOX IMVI melanoma was found to be 25.9 µM; in the assay with M14 melanoma it was 29.8 µM; in the assay on OVCAR-8 ovarian, 58.5 µM; with A498 renal it was 25.4 µM; with DU-145 prostate, 22.1 µM; with SK-OV-3 ovarian, 83.1 µM. In addition, the TGI with NCI/ADR-RES ovarian was 62.3 µM; with UO-31 renal, 18.9 µM; in the assay with SF-268 CNS, 35.6 µM; in the assay on COLO 205 colon it was 36.7 µM.

Turning to `CC(C)C(NC(=O)C(CCCN=C(N)N)NC(=O)NC(Cc1ccccc1)C(=O)O)C(=O)NC(C=O)CCCN=C(N)N` (stereo not drawn) ({Phe-CO}-Arg-Val-Arg-aldehyde; configuration not given here), the GI50 in the assay on LOX IMVI melanoma, in the assay on M14 melanoma, in the assay with OVCAR-8 ovarian, in the assay with A498 renal, with DU-145 prostate and in the assay on SK-OV-3 ovarian was over 5 µM each time. Also, the GI50 in the assay with NCI/ADR-RES ovarian, in the assay on UO-31 renal, in the assay with SF-268 CNS and in the assay with COLO 205 colon was over 5 µM each time. Also, the TGI in the assay on LOX IMVI melanoma, with M14 melanoma, with OVCAR-8 ovarian, in the assay with A498 renal, in the assay with DU-145 prostate and with SK-OV-3 ovarian was over 5 µM throughout. The TGI in the assay on NCI/ADR-RES ovarian, with UO-31 renal, in the assay with SF-268 CNS and in the assay on COLO 205 colon was over 5 µM each time.

As for `CCOC(=O)c1ccc(C(O)CC(=O)OC(C)(C)C)[nH]1` (centres undefined), the GI50 was 25.1 µM in the assay with LOX IMVI melanoma; 27 µM in the assay with M14 melanoma; 56.7 µM with OVCAR-8 ovarian; 23.7 µM in the assay on A498 renal; 59.7 µM in the assay on DU-145 prostate; 32.1 µM in the assay on SK-OV-3 ovarian. Also, the GI50 in the assay on NCI/ADR-RES ovarian was 41 µM; in the assay on UO-31 renal it was 38.5 µM; in the assay on SF-268 CNS, 28.7 µM; in the assay on COLO 205 colon, 41.3 µM. Further, the TGI with LOX IMVI melanoma is 86.8 µM; in the assay with M14 melanoma it was 67.3 µM; in the assay with OVCAR-8 ovarian, over 100 µM; in the assay on A498 renal, over 100 µM; in the assay with DU-145 prostate, over 100 µM; in the assay with SK-OV-3 ovarian, over 100 µM. The TGI in the assay on NCI/ADR-RES ovarian, in the assay on UO-31 renal, in the assay with SF-268 CNS and in the assay with COLO 205 colon was over 100 µM throughout.

With `CNC(=O)c1ccc(Nc2nc(OC3CCCC3)c3c(-c4ccc5nc(C)oc5c4)c[nH]c3n2)c(OC)c1`, the GI50 with LOX IMVI melanoma is 0.381 µM; with M14 melanoma, 16.9 µM; in the assay on OVCAR-8 ovarian it was 0.6 µM; in the assay on A498 renal, 0.547 µM; in the assay with DU-145 prostate it was 6.31 µM; with NCI/ADR-RES ovarian it was 1.71 µM. In addition, the GI50 was 2.97 µM in the assay with UO-31 renal, over 47.2 µM in the assay with SF-268 CNS and 0.208 µM in the assay on COLO 205 colon. Moreover, the TGI with LOX IMVI melanoma, in the assay with M14 melanoma, in the assay on OVCAR-8 ovarian, with A498 renal, in the assay with DU-145 prostate and in the assay on SK-OV-3 ovarian was over 100 µM throughout. In addition, the TGI in the assay on NCI/ADR-RES ovarian, with UO-31 renal, in the assay on SF-268 CNS and in the assay on COLO 205 colon was over 100 µM each time.

The record behind these values is PubChem BioAssay (NCI).
